In brackets after ≈: the same amount, converted by molar mass.
What was measured:
[1] = Compound solubility in water
[2] = target: T1, glucocerebrosidase (Gcase) (Homo sapiens, UniProt P04062); assay: Glucocerebrosidase (Gcase) activation assay, 4-methylumbelliferyl-beta-D-glucopyranoside substrate, with saposin C; type: biochemical; settings: 10 nM GCase, 100 nM saposin C, pH 4.7; for activation at 0.1 µM: read-out: Percent Gcase Activation, 0.1 μM Test Compound; for activation at 1 µM: read-out: Percent Gcase Activation, 1 μM Test Compound
T1 sequence (P04062 40-536): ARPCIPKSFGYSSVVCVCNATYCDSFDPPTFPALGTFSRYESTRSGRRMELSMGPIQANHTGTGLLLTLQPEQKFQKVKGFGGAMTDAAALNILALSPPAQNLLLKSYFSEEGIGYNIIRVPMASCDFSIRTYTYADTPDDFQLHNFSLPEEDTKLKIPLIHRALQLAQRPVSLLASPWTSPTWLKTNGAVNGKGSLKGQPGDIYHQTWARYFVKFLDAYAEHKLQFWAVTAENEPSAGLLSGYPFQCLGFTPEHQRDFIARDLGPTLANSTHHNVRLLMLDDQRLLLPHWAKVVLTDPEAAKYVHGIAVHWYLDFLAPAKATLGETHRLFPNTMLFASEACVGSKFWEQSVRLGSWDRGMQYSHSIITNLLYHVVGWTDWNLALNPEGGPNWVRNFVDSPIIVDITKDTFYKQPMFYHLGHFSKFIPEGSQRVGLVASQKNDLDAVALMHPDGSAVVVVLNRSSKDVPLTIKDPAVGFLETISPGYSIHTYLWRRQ
Procedure: A 484 μL aliquot of a 1.0 mg/mL solution of phosphatidylserine (PS) (Sigma P7769) in chloroform was evaporated under a stream of nitrogen for 1 hour. The lipid film was dissolved over 4 minutes of vigorous vortexing in 40 mL of 176 mM K2HPO4/50 mM citric acid (pH 4.7) containing 7.5 μL of triton X-100, resulting in a mixed micellar preparation with a composition of 0.32 mM triton and 0.37 mol % PS. 4-Methylumbelliferyl-beta-D-glucopyranoside (ACROS-337025000) was dissolved in the micellar solution to a final concentration of 2 mM for use as the reaction substrate.
Test compounds were diluted to the desired concentrations with dimethylsulfoxide (DMSO) from 10 mM stocks, and 0.41 μL of the DMSO compound mixture was added to 100 μL of micellar solution containing 10 nM GCase and 100 nM saposin C (Enzo ALX-201-262-C050). Pre-incubation was allowed to occur for 30 minutes at room temperature, after which the reaction was initiated by combining 25 μL of substrate solution with 25 μL of compound/GCase/saposin mixture. The reaction proceeded for 15 minutes at room temperature and was stopped by adding 150 μL of 1M glycine, pH 12.5. The endpoint of the reaction was monitored by measuring fluorescence intensity (excitation: 365 nm; emission: 440 nm) on a SpectraMax i3 instrument (Molecular Devices). […]

Row | Molecule | solubility [1] [µg/mL] | activation at 0.1 µM ([2]; 0.1 μM test compound) [%] | activation at 1 µM ([2]; 1 μM test compound) [%] | Percent Gcase Activation, 1 μM Test Compound ([2]; 1 μM test compound) | Percent Gcase Activation, 0.1 μM Test Compound ([2]; 0.1 μM test compound)
1 | CCCCCO[C@H]1CC[C@H](NC(=O)c2nccn3cc(C)nc23)CC1 [2-Methyl-N—((R 4R)-4-(pentyloxy)cyclohexyl)imidazo[1,2-a]pyrazine-8-carboxamide] | 8.4 (≈ 24.4 µM) | < 5 | < 5 |  | 
2 | Cc1ccc(C(=O)NC2CCCc3ccccc32)c2nccn12 (stereo not drawn) [5-Methyl-N-(1,2,3,4-tetrahydronaphthalen-1-yl)imidazo[1,2-a]pyridine-8-carboxamide] | 0.2 (≈ 0.655 µM) | 5 to 20 | > 20 |  | 
3 | CCC(NC(=O)c1nccn2cc(C)nc12)c1ccccc1 (stereo not drawn) [2-Methyl-N-(1-phenylpropyl)imidazo[1,2-a]pyrazine-8-carboxamide] | 10.9 (≈ 37.1 µM) | < 5 | < 5 |  | 
4 | CCC(NC(=O)c1cccc2oc(C)nc12)c1ccccc1 (stereo not drawn) [2-Methyl-N-(1-phenylpropyl)benzo[d]oxazole-4-carboxamide] | 13.2 (≈ 44.7 µM) | < 5 | 5 to 20 |  | 
5 | Cc1cn2ccnc(C(=O)NC3CCCc4ccccc43)c2n1 (stereo not drawn) [2-Methyl-N-(1,2,3,4-tetrahydronaphthalen-1-yl)imidazo[1,2-a]pyrazine-8-carboxamide] | 7.7 (≈ 25.1 µM) | < 5 | < 5 |  | 
6 | Cc1nc2c(C(=O)NC3CCCc4ccccc43)cccc2o1 (stereo not drawn) [2-Methyl-N-(1,2,3,4-tetrahydronaphthalen-1-yl)benzo[d]oxazole-4-carboxamide] | 1.5 (≈ 4.9 µM) | < 5 | > 20 |  | 
7 | CCCCCO[C@H]1CC[C@H](NC(=O)c2cccc3oc(C)nc23)CC1 [2-Methyl-N-((1R,4R)-4-(pentyloxy)cyclohexyl)benzo[d]oxazole-4-carboxamide] | 1.6 (≈ 4.65 µM) | < 5 | < 5 |  | 
8 | CCC(NC(=O)c1ccc(C)n2ccnc12)c1ccccc1 (stereo not drawn) [5-Methyl-N-(1-phenylpropyl)imidazo[1,2-a]pyridine-8-carboxamide] | 6.2 (≈ 21.1 µM) | 5 to 20 | > 20 |  | 
9 | N-(4-Ethynylphenyl)-5-methylimidazo[1,2-a]pyrazine-8-carboxamide |  |  |  | +++ (Gcase activation greater than 20%) | ++ (Gcase activation in the range of 5% up to 20%)

Continued, in another order:

Row | solubility [1] [µg/mL] | activation at 0.1 µM ([2]; 0.1 μM test compound) [%] | activation at 1 µM ([2]; 1 μM test compound) [%] | Percent Gcase Activation, 1 μM Test Compound ([2]; 1 μM test compound) | Molecule | Percent Gcase Activation, 0.1 μM Test Compound ([2]; 0.1 μM test compound)
10 | 0.4 (≈ 1.37 µM) | < 5 | > 20 |  | Cc1ccc(C(=O)Nc2ccc3c(c2)CCC3)c2nccn12 [N-(2,3-Dihydro-1H-inden-5-yl)-5-methylimidazo[1,2-a]pyridine-8-carboxamide] | 
11 | 0.3 (≈ 1.03 µM) | < 5 | 5 to 20 |  | Cc1nc2c(C(=O)Nc3ccc4c(c3)CCC4)cccc2o1 [N-(2,3-Dihydro-1H-inden-5-yl)-2-methylbenzo[d]oxazole-4-carboxamide] | 
12 | 1 (≈ 3.42 µM) | < 5 | 5 to 20 |  | Cc1cn2ccnc(C(=O)Nc3ccc4c(c3)CCC4)c2n1 [N-(2,3-Dihydro-1H-inden-5-yl)-2-methylimidazo[1,2-al]pyrazine-8-carboxamide] | 
13 | 14.2 (≈ 41.3 µM) | 5 to 20 | > 20 |  | CCCCCO[C@H]1CC[C@H](NC(=O)c2ccc(C)n3ccnc23)CC1 [5-Methyl-N-((1S,4S)-4-(pentyloxy)cyclohexyl) imidazo[1,2-a]pyridine-8-carboxamide] | 
14 | 9.9 (≈ 33.3 µM) | 5 to 20 | > 20 |  | Cc1ccc(C(=O)NC(C2CC2)C(F)(F)F)c2nccn12 (stereo not drawn) [N-(1-Cyclopropyl-2,2,2-trifluoroethyl)-5-methylimidazo[1,2-a]pyridine-8-carboxamide] | 
15 | 0.8 (≈ 2.9 µM) | < 5 | 5 to 20 |  | C#Cc1ccc(NC(=O)c2nccn3cc(C)nc23)cc1 [N-(4-Ethynlphenyl)-2-methylimidazo[1,2-a]pyrazine-8-carboxamide] | 
16 |  | < 5 | 5 to 20 |  | Cc1ccc(C(=O)N[C@@H](C)C2CC2)c2nccn12 [(S)—N-(1-Cyclopropylethyl)-5-methylimidazo[1,2-a]pyridine-8-carboxamide] | 
17 |  | < 5 | > 20 |  | Cc1ccc(C(=O)NC(C)(C)C2CC2)c2nccn12 [N-(2-Cyclopropylpropan-2-yl)-5-methylimidazo[1,2-a]pyridine-8-carboxamide] | 
